Data as given in patent US20240368135A1 (VERTEX PHARMACEUTICALS INCORPORATED, priority 2021, published 2024).
Where two headings read alike, the source gives them in different places.

Biological target: human NaV 1.8 (Homo sapiens, UniProt Q9Y5Y9)
Assay: E-VIPR assay detecting and measuring NaV inhibition properties
Type: cell-based
Settings: HEK cells expressing truncated human NaV 1.8
Summary of the method: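 Membrane potential was followed by coumarin/oxonol FRET during electrical field stimulation of matrigel-seeded HEK cells carrying truncated human NaV1.8 plus KIR2.1. Dosing used 11 points, 3-fold steps, top 300 nM final, 0.625% DMSO, with or without 25% human serum.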

[1] = no human serum, read-out: IC50 in the E-VIPR Assay
[2] = in the presence of human serum (compound numbers followed by *), read-out: IC50 in the E-VIPR Assay, performed in the presence of human serum

Sequence of human NaV 1.8 (Q9Y5Y9 126-399 limits assumed): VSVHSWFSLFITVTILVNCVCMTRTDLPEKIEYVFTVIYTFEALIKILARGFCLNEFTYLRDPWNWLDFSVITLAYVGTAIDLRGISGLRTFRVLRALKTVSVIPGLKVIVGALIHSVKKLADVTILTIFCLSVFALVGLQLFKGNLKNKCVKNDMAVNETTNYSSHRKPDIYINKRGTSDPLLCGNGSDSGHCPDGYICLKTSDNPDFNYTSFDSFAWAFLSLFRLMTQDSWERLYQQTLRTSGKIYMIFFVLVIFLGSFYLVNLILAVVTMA
Sequence of human NaV 1.8 (Q9Y5Y9 660-890 limits assumed): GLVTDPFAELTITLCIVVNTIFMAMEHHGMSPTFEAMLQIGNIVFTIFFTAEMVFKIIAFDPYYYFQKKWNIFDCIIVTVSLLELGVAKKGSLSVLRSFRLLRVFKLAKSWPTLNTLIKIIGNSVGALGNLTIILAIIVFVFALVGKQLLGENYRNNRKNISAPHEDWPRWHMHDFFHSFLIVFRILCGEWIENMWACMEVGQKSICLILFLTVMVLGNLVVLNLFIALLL
Sequence of human NaV 1.8 (Q9Y5Y9 1148-1722 limits assumed): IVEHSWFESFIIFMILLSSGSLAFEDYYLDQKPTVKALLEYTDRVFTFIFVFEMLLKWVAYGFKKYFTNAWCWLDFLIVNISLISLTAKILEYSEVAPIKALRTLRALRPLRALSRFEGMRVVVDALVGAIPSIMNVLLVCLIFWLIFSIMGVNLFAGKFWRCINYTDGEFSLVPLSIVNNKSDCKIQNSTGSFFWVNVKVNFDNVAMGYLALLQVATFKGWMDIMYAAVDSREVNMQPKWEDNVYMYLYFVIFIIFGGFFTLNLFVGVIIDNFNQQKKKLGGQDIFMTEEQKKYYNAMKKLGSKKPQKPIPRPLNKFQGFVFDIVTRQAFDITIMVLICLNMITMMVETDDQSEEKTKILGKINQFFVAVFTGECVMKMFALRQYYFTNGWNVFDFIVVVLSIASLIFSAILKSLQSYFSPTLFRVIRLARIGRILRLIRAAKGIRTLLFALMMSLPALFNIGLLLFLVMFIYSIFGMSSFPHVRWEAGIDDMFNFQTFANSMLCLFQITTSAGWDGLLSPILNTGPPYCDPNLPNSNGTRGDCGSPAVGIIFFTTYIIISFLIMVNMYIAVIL

| IC50 [1] [µM] | IC50 [2] [µM] | SMILES |
| --- | --- | --- |
| 0.01 to 0.1 |  | CNC(=O)c1ccc(NC(=O)[C@H]2O[C@](C)(C(F)(F)F)[C@H](C)[C@@H]2c2ccc(F)c(C(F)F)c2OC)cn1 (stereo in doubt) [Compound 171, rel-5-((2S,3R,4R,5S)-3-(3-(difluoromethyl)-4-fluoro-2-methoxyphenyl)-4,5-dimethyl-5-(trifluoromethyl)tetrahydrofuran-2-carboxamido)-N-methylpicolinamide] |
| ≥ 1 |  | COc1c([C@@H]2[C@@H](C(=O)Nc3cnc(C(N)=O)nc3)O[C@](C)(C(F)(F)F)[C@@H]2C)ccc(F)c1C(F)F (stereo in doubt) [Compound 172, rel-5((2S,3R,4R,5S)-3-(3-(difluoromethyl)-4-fluoro-2-methoxy-phenyl)-4,5-dimethyl-5-(trifluoromethyl)tetrahydrofuran-2-carboxamido)pyrimidine-2-carboxamide] |
| < 0.01 |  | COc1c([C@H]2[C@H](C(=O)Nc3cnc(C(N)=O)nc3)O[C@@](C)(C(F)(F)F)[C@H]2C)ccc(F)c1C(F)F (stereo in doubt) [Compound 173, rel-5-((2R,3S,4S,5R)-3-(3-(difluoromethyl)-4-fluoro-2-methoxyphenyl)-4,5-dimethyl-5-(trifluoromethyl)tetrahydrofuran-2-carboxamido)pyrimidine-2-carboxamide] |
| ≥ 1 |  | COCc1c(F)ccc([C@@H]2[C@@H](C(=O)Nc3ccc(C(N)=O)nc3)O[C@](C)(C(F)(F)F)[C@@H]2C)c1OC (stereo in doubt) [Compound 178, rel-5-((2S,3R,4R,5S)-3-(4-fluoro-2-methoxy-3-(methoxymethyl)phenyl)-4,5-dimethyl-5-(trifluoromethyl)tetrahydrofuran-2-carboxamido)picolinamide] |
| 0.01 to 0.1 |  | COCc1c(F)ccc([C@H]2[C@H](C(=O)Nc3ccc(C(N)=O)nc3)O[C@@](C)(C(F)(F)F)[C@H]2C)c1OC (stereo in doubt) [Compound 179, rel-5-((2R,3S,4S,5R)-3-(4-fluoro-2-methoxy-3-(methoxymethyl)phenyl)-4,5-dimethyl-5-(trifluoromethyl)tetrahydrofuran-2-carboxamido)picolinamide] |
| ≥ 1 |  | COc1c([C@@H]2[C@@H](C(=O)Nc3ccnc(S(=O)(=O)N(C)C)c3)O[C@](C)(C(F)(F)F)[C@@H]2C)ccc(F)c1F (stereo in doubt) [Compound 448, rel-(2S,3R,4R,5S)-3-(3,4-difluoro-2-methoxyphenyl)-N-(2-(N,N-dimethylsulfamoyl)pyridin-4-yl)-4,5-dimethyl-5-(trifluoromethyl)tetrahydrofuran-2-carboxamide] |
| < 0.01 |  | COc1c([C@H]2[C@H](C(=O)Nc3ccnc(S(=O)(=O)N(C)C)c3)O[C@@](C)(C(F)(F)F)[C@H]2C)ccc(F)c1F (stereo in doubt) [Compound 449, rel-(2R,3S,4S,5R)-3-(3,4-difluoro-2-methoxyphenyl)-N-(2-(N,N-dimethylsulfamoyl)pyridin-4-yl)-4,5-dimethyl-5-(trifluoromethyl)tetrahydrofuran-2-carboxamide] |
| ≥ 1 |  | COc1c([C@@H]2[C@@H](C(=O)Nc3cncc(S(=O)(=O)N(C)C)c3)O[C@](C)(C(F)(F)F)[C@@H]2C)ccc(F)c1F (stereo in doubt) [Compound 452, rel-(2S,3R,4R,5S)-3-(3,4-difluoro-2-methoxyphenyl)-N-(5-(N,N-dimethylsulfamoyl)pyridin-3-yl)-4,5-dimethyl-5-(trifluoromethyl)tetrahydrofuran-2-carboxamide] |
| 0.01 to 0.1 |  | COc1c([C@H]2[C@H](C(=O)Nc3cncc(S(=O)(=O)N(C)C)c3)O[C@@](C)(C(F)(F)F)[C@H]2C)ccc(F)c1F (stereo in doubt) [Compound 453, rel-(2R,3S,4S,5R)-3-(3,4-difluoro-2-methoxyphenyl)-N-(5-(N,N-dimethylsulfamoyl)pyridin-3-yl)-4,5-dimethyl-5-(trifluoromethyl)tetrahydrofuran-2-carboxamide] |
|  | ≥ 1 | COc1c([C@H]2C[C@@](C)(C(F)(F)F)O[C@@H]2C(=O)Nc2cn(S(C)(=O)=O)nc2C)ccc(F)c1F (stereo in doubt) [Compound 683, rel-(2S,3R,5S)-3-(3,4-difluoro-2-methoxyphenyl)-5-methyl-N-(3-methyl-1-(methylsulfonyl)-1H-pyrazol-4-yl)-5-(trifluoromethyl)tetrahydrofuran-2-carboxamide] |
| < 0.01 |  | COc1c([C@@H]2C[C@](C)(C(F)(F)F)O[C@H]2C(=O)Nc2cn(S(C)(=O)=O)nc2C)ccc(F)c1F (stereo in doubt) [Compound 684, rel-(2R,3S,5R)-3-(3,4-difluoro-2-methoxyphenyl)-5-methyl-N-(3-methyl-1-(methylsulfonyl)-1H-pyrazol-4-yl)-5-(trifluoromethyl)tetrahydrofuran-2-carboxamide] |
|  | ≥ 1 | COc1c([C@H]2C[C@@](C)(C(F)(F)F)O[C@@H]2C(=O)Nc2ccnc([C@@H](O)[C@H](C)O)c2)ccc(F)c1F (stereo in doubt) [Compound 698, rel-(2S,3R,5S)-3-(3,4-difluoro-2-methoxyphenyl)-N-(2-((1R,2S)-1,2-dihydroxypropyl)pyridin-4-yl)-5-methyl-5-(trifluoromethyl)tetrahydrofuran-2-carboxamide] |
|  | 0.01 to 0.1 | COc1c([C@@H]2C[C@](C)(C(F)(F)F)O[C@H]2C(=O)Nc2ccnc([C@H](O)[C@@H](C)O)c2)ccc(F)c1F (stereo in doubt) [Compound 699, rel-(2R,3S,5R)-3-(3,4-difluoro-2-methoxyphenyl)-N-(2-((1S,2R)-1,2-dihydroxypropyl)pyridin-4-yl)-5-methyl-5-(trifluoromethyl)tetrahydrofuran-2-carboxamide] |
|  | ≥ 1 | COc1cc(F)ccc1[C@H]1C[C@@](C)(C(F)(F)F)O[C@@H]1C(=O)Nc1ccnc(S(C)(=O)=O)c1 (stereo in doubt) [Compound 713, rel-(2S,3R,5S)-3-(4-fluoro-2-methoxyphenyl)-5-methyl-N-(2-(methylsulfonyl)pyridin-4-yl)-5-(trifluoromethyl)tetrahydrofuran-2-carboxamide] |
|  | 0.1 to 1 | COc1cc(F)ccc1[C@@H]1C[C@](C)(C(F)(F)F)O[C@H]1C(=O)Nc1ccnc(S(C)(=O)=O)c1 (stereo in doubt) [Compound 714, rel-(2R,3S,5R)-3-(4-fluoro-2-methoxyphenyl)-5-methyl-N-(2-(methylsulfonyl)pyridin-4-yl)-5-(trifluoromethyl)tetrahydrofuran-2-carboxamide] |
|  | ≥ 1 | CCc1c(F)ccc([C@H]2C[C@@](C)(C(F)(F)F)O[C@@H]2C(=O)Nc2cn(S(C)(=O)=O)nc2C)c1OC (stereo in doubt) [Compound 716, rel-(2S,3R,5S)-3-(3-ethyl-4-fluoro-2-methoxyphenyl)-5-methyl-N-(3-methyl-1-(methylsulfonyl)-1H-pyrazol-4-yl)-5-(trifluoromethyl)tetrahydrofuran-2-carboxamide] |
|  | 0.1 to 1 | CCc1c(F)ccc([C@@H]2C[C@](C)(C(F)(F)F)O[C@H]2C(=O)Nc2cn(S(C)(=O)=O)nc2C)c1OC (stereo in doubt) [Compound 717, rel-(2R,3S,5R)-3-(3-ethyl-4-fluoro-2-methoxyphenyl)-5-methyl-N-(3-methyl-1-(methylsulfonyl)-1H-pyrazol-4-yl)-5-(trifluoromethyl)tetrahydrofuran-2-carboxamide] |
| 0.1 to 1 |  | COc1nc(C(F)F)ccc1[C@H]1[C@H](C(=O)Nc2ccc(C(N)=O)nc2)O[C@@](C)(C(F)(F)F)[C@H]1C (stereo in doubt) [Compound 734, rel-5-((2R,3S,4S,5R)-3-(6-(difluoromethyl)-2-methoxypyridin-3-yl)-4,5-dimethyl-5-(trifluoromethyl)tetrahydrofuran-2-carboxamido)picolinamide] |
| ≥ 1 |  | COc1nc(C(F)F)ccc1[C@@H]1[C@@H](C(=O)Nc2ccc(C(N)=O)nc2)O[C@](C)(C(F)(F)F)[C@@H]1C (stereo in doubt) [Compound 735, rel-5-((2S,3R,4R,5S)-3-(6-(difluoromethyl)-2-methoxypyridin-3-yl)-4,5-dimethyl-5-(trifluoromethyl)tetrahydrofuran-2-carboxamido)picolinamide] |
| < 0.01 |  | COc1c([C@H]2[C@H](C(=O)Nc3ccc(C(N)=O)nc3)O[C@@](C)(C(F)(F)F)[C@H]2C)ccc(F)c1F [Compound 1, 5-((2R,3S,4S,5R)-3-(3,4-difluoro-2-methoxyphenyl)-4,5-dimethyl-5-(trifluoromethyl)tetrahydrofuran-2-carboxamido)picolinamide] |
| 0.01 to 0.1 |  | COc1c([C@H]2[C@H](C(=O)Nc3ccc(C(N)=O)[n+]([O-])c3)O[C@@](C)(C(F)(F)F)[C@H]2C)ccc(F)c1F [Compound 2, 2-carbamoyl-5-((2R,3S,4S,5R)-3-(3,4-difluoro-2-methoxyphenyl)-4,5-dimethyl-5-(trifluoromethyl)tetra hydrofuran-2-carboxamido)pyridine 1-oxide] |
| 0.01 to 0.1 |  | COc1c([C@H]2[C@H](C(=O)Nc3cc(C[C@H](O)CO)n(C)n3)O[C@@](C)(C(F)(F)F)[C@H]2C)ccc(F)c1F [Compound 5, (2R,3S,4S,5R)-3-(3,4-difluoro-2-methoxyphenyl)-N-(5-((S)-2,3-dihydroxypropyl)-1-methyl-1H-pyrazol-3-yl)-4,5-dimethyl-5-(trifluoromethyl)tetrahydrofuran-2-carboxamide] |
| 0.01 to 0.1 |  | COCC(C)(C)N(C)Cc1cc(NC(=O)[C@@H]2O[C@@](C)(C(F)(F)F)[C@@H](C)[C@H]2c2ccc(F)c(F)c2OC)ccn1 [Compound 15] |
| 0.01 to 0.1 |  | COc1c([C@H]2[C@H](C(=O)Nc3ccc4nc(C(N)=O)nn4c3)O[C@@](C)(C(F)(F)F)[C@H]2C)ccc(F)c1F [Compound 16] |
| < 0.01 |  | COc1c(C2C(C(=O)Nc3cnnc(CO)c3)OC(C)(C(F)(F)F)C2C)ccc(F)c1F (stereo not shown) [Compound 18, 3-(3,4-difluoro-2-methoxy-phenyl)-N-[6-(hydroxymethyl)pyridazin-4-yl]-4,5-dimethyl-5-(trifluoromethyl)tetrahydrofuran-2-carboxamide] |
